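Cultured in 96-well plates, cells were exposed to test compound for 48 hours across five concentrations. The concentration for 50% growth inhibition is given as GI50. TGI: concentration producing complete growth inhibition.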
tested on: SF-539 CNS; assay: NCI-60 cell line screen, 48 h

SMILES | TGI [µM] | GI50 [µM]
O=C(Nc1nnc(-c2ccc(Cl)cc2)o1)C(SC(=S)N1CCOCC1)c1ccccc1 (configuration not stated) | 34.1 | –
CC(C)c1ccc(-c2cc(-c3cn[nH]c3-c3ccccn3)ccn2)cc1 | > 25 | 25
CCOC(=O)C1CCN(S(=O)(=O)/N=C2/NC(=O)NC2=C(Cl)Cl)CC1 | 4.44 | 0.525

tested on: SK-MEL-28 melanoma; assay: NCI-60 cell line screen, 48 h

SMILES | TGI [µM] | GI50 [nM]
O=C(Nc1nnc(-c2ccc(Cl)cc2)o1)C(SC(=S)N1CCOCC1)c1ccccc1 (configuration not stated) | > 100 | –
CC(C)c1ccc(-c2cc(-c3cn[nH]c3-c3ccccn3)ccn2)cc1 | > 25 | > 25000
CCNCCNc1cc(-c2ccc(C(F)(F)F)cc2)c(C#N)c2nc3ccccc3n12 | 3.05 | 1540
CCOC(=O)C1CCN(S(=O)(=O)/N=C2/NC(=O)NC2=C(Cl)Cl)CC1 | 3.51 | 1800

tested on: SK-OV-3 ovarian; assay: NCI-60 cell line screen, 48 h

SMILES | TGI [µM] | GI50 [µM]
O=C(Nc1nnc(-c2ccc(Cl)cc2)o1)C(SC(=S)N1CCOCC1)c1ccccc1 (configuration not stated) | > 100 | –
CC(C)c1ccc(-c2cc(-c3cn[nH]c3-c3ccccn3)ccn2)cc1 | > 25 | > 23.4
CCNCCNc1cc(-c2ccc(C(F)(F)F)cc2)c(C#N)c2nc3ccccc3n12 | 3.17 | 1.66
CCOC(=O)C1CCN(S(=O)(=O)/N=C2/NC(=O)NC2=C(Cl)Cl)CC1 | 21.7 | 9.94

tested on: NCI-H23 lung; assay: NCI-60 cell line screen, 48 h

SMILES | TGI [µM] | GI50 [nM]
O=C(Nc1nnc(-c2ccc(Cl)cc2)o1)C(SC(=S)N1CCOCC1)c1ccccc1 (configuration not stated) | 70.6 | –
CC(C)c1ccc(-c2cc(-c3cn[nH]c3-c3ccccn3)ccn2)cc1 | > 25 | 11700
CCNCCNc1cc(-c2ccc(C(F)(F)F)cc2)c(C#N)c2nc3ccccc3n12 | 3.25 | 1620
CCOC(=O)C1CCN(S(=O)(=O)/N=C2/NC(=O)NC2=C(Cl)Cl)CC1 | 4.38 | 2120

tested on: SK-MEL-2 melanoma; assay: NCI-60 cell line screen, 48 h

SMILES | TGI [µM] | GI50 [nM]
O=C(Nc1nnc(-c2ccc(Cl)cc2)o1)C(SC(=S)N1CCOCC1)c1ccccc1 (configuration not stated) | 44.7 | –
CC(C)c1ccc(-c2cc(-c3cn[nH]c3-c3ccccn3)ccn2)cc1 | > 25 | 9520
CCNCCNc1cc(-c2ccc(C(F)(F)F)cc2)c(C#N)c2nc3ccccc3n12 | 3.87 | 2030
CCOC(=O)C1CCN(S(=O)(=O)/N=C2/NC(=O)NC2=C(Cl)Cl)CC1 | 7.5 | 2370

tested on: OVCAR-3 ovarian; assay: NCI-60 cell line screen, 48 h

SMILES | TGI [µM] | GI50 [nM]
O=C(Nc1nnc(-c2ccc(Cl)cc2)o1)C(SC(=S)N1CCOCC1)c1ccccc1 (configuration not stated) | 30.2 | –
CC(C)c1ccc(-c2cc(-c3cn[nH]c3-c3ccccn3)ccn2)cc1 | > 25 | 8400
CCNCCNc1cc(-c2ccc(C(F)(F)F)cc2)c(C#N)c2nc3ccccc3n12 | 1 | 306
CCOC(=O)C1CCN(S(=O)(=O)/N=C2/NC(=O)NC2=C(Cl)Cl)CC1 | 3.29 | 1770

tested on: HT29 colon; assay: NCI-60 cell line screen, 48 h

SMILES | TGI [µM] | GI50 [nM]
O=C(Nc1nnc(-c2ccc(Cl)cc2)o1)C(SC(=S)N1CCOCC1)c1ccccc1 (configuration not stated) | 78.3 | –
CC(C)c1ccc(-c2cc(-c3cn[nH]c3-c3ccccn3)ccn2)cc1 | > 19.6 | 6920
CCNCCNc1cc(-c2ccc(C(F)(F)F)cc2)c(C#N)c2nc3ccccc3n12 | 1.29 | 365
CCOC(=O)C1CCN(S(=O)(=O)/N=C2/NC(=O)NC2=C(Cl)Cl)CC1 | 4.3 | 2200

tested on: UO-31 renal; assay: NCI-60 cell line screen, 48 h

SMILES | TGI [µM] | GI50 [nM]
O=C(Nc1nnc(-c2ccc(Cl)cc2)o1)C(SC(=S)N1CCOCC1)c1ccccc1 (configuration not stated) | 30 | –
CC(C)c1ccc(-c2cc(-c3cn[nH]c3-c3ccccn3)ccn2)cc1 | > 25 | 6600
CCNCCNc1cc(-c2ccc(C(F)(F)F)cc2)c(C#N)c2nc3ccccc3n12 | 2.77 | 1360
CCOC(=O)C1CCN(S(=O)(=O)/N=C2/NC(=O)NC2=C(Cl)Cl)CC1 | 4.02 | 1730

tested on: SNB-75 CNS; assay: NCI-60 cell line screen, 48 h

SMILES | TGI [µM] | GI50 [nM]
O=C(Nc1nnc(-c2ccc(Cl)cc2)o1)C(SC(=S)N1CCOCC1)c1ccccc1 (configuration not stated) | > 100 | –
CC(C)c1ccc(-c2cc(-c3cn[nH]c3-c3ccccn3)ccn2)cc1 | > 25 | > 9110
CCNCCNc1cc(-c2ccc(C(F)(F)F)cc2)c(C#N)c2nc3ccccc3n12 | 2.54 | 1230
CCOC(=O)C1CCN(S(=O)(=O)/N=C2/NC(=O)NC2=C(Cl)Cl)CC1 | 14.1 | 2860

tested on: UACC-62 melanoma; assay: NCI-60 cell line screen, 48 h

SMILES | GI50 [nM] | TGI [µM]
CC(C)c1ccc(-c2cc(-c3cn[nH]c3-c3ccccn3)ccn2)cc1 | 17200 | > 25
CCNCCNc1cc(-c2ccc(C(F)(F)F)cc2)c(C#N)c2nc3ccccc3n12 | 496 | 1.82
CCOC(=O)C1CCN(S(=O)(=O)/N=C2/NC(=O)NC2=C(Cl)Cl)CC1 | 1710 | 3.27

tested on: T-47D breast; assay: NCI-60 cell line screen, 48 h

SMILES | TGI [µM] | GI50 [µM]
O=C(Nc1nnc(-c2ccc(Cl)cc2)o1)C(SC(=S)N1CCOCC1)c1ccccc1 (configuration not stated) | > 100 | –
CC(C)c1ccc(-c2cc(-c3cn[nH]c3-c3ccccn3)ccn2)cc1 | > 23.7 | 6.96
CCNCCNc1cc(-c2ccc(C(F)(F)F)cc2)c(C#N)c2nc3ccccc3n12 | 2.6 | 0.79
CCOC(=O)C1CCN(S(=O)(=O)/N=C2/NC(=O)NC2=C(Cl)Cl)CC1 | 32.9 | 4.41

tested on: HL-60(TB) leukemia; assay: NCI-60 cell line screen, 48 h

SMILES | TGI [µM] | GI50 [nM]
O=C(Nc1nnc(-c2ccc(Cl)cc2)o1)C(SC(=S)N1CCOCC1)c1ccccc1 (configuration not stated) | 25.7 | –
CC(C)c1ccc(-c2cc(-c3cn[nH]c3-c3ccccn3)ccn2)cc1 | > 25 | 11400
CCNCCNc1cc(-c2ccc(C(F)(F)F)cc2)c(C#N)c2nc3ccccc3n12 | 0.468 | 203
CCOC(=O)C1CCN(S(=O)(=O)/N=C2/NC(=O)NC2=C(Cl)Cl)CC1 | 4.34 | 1740

tested on: MDA-MB-435; assay: NCI-60 cell line screen, 48 h

SMILES | TGI [µM] | GI50 [nM]
O=C(Nc1nnc(-c2ccc(Cl)cc2)o1)C(SC(=S)N1CCOCC1)c1ccccc1 (configuration not stated) | > 100 | –
CC(C)c1ccc(-c2cc(-c3cn[nH]c3-c3ccccn3)ccn2)cc1 | > 25 | 9420
CCNCCNc1cc(-c2ccc(C(F)(F)F)cc2)c(C#N)c2nc3ccccc3n12 | 2.56 | 1280
CCOC(=O)C1CCN(S(=O)(=O)/N=C2/NC(=O)NC2=C(Cl)Cl)CC1 | 4.66 | 1930

tested on: A549 NSCLC; assay: NCI-60 cell line screen, 48 h

SMILES | TGI [µM] | GI50 [µM]
O=C(Nc1nnc(-c2ccc(Cl)cc2)o1)C(SC(=S)N1CCOCC1)c1ccccc1 (configuration not stated) | 81.3 | –
CC(C)c1ccc(-c2cc(-c3cn[nH]c3-c3ccccn3)ccn2)cc1 | > 25 | 13.7
CCNCCNc1cc(-c2ccc(C(F)(F)F)cc2)c(C#N)c2nc3ccccc3n12 | 3.41 | 1.75
CCOC(=O)C1CCN(S(=O)(=O)/N=C2/NC(=O)NC2=C(Cl)Cl)CC1 | 17.7 | 4.82

tested on: HCC-2998 colon; assay: NCI-60 cell line screen, 48 h

SMILES | GI50 [µM] | TGI [µM]
CC(C)c1ccc(-c2cc(-c3cn[nH]c3-c3ccccn3)ccn2)cc1 | 10.4 | > 25
